Structures can show the parent of a compound that is named as a salt.

As to `O=C(Oc1ccc2ccccc2c1)N1CCN2CCC1CC2` (as salt: hydrochloride), the melting point was 255.5 °C.

`O=C(Oc1ccccc1[N+](=O)[O-])N1CCN2CCC1CC2` (as salt: hydrochloride) registered a melting point of 260.4 °C.

`O=C(Oc1ccc(C2CCCCC2)cc1)N1CCN2CCC1CC2` (as salt: hydrochloride) returned a melting point of 294.1 °C.

Turning to `O=C(Oc1cccc(F)c1)N1CCN2CCC1CC2` (as salt: hydrochloride), the melting point came to 228.2 °C.

For `CCCOC(=O)N1CCN2CCC1CC2` (as salt: hydrochloride), the melting point worked out at 242 °C.

For `O=C(Oc1ccc(Oc2ccccc2)cc1)N1CCN2CCC1CC2` (as salt: hydrochloride), the melting point was 238 °C.

Compound `O=C(Oc1ccc([N+](=O)[O-])cc1)N1CCN2CCC1CC2` (as salt: hydrochloride) gave a melting point of 267.5 °C.

In the case of `O=C(Oc1ccccc1I)N1CCN2CCC1CC2` (as salt: hydrochloride), the melting point was 254 °C.

For the compound `O=C(Oc1ccccc1Br)N1CCN2CCC1CC2` (as salt: hydrochloride), the melting point is 267.2 °C.

`Cc1ccc(OC(=O)N2CCN3CCC2CC3)cc1C` (as salt: hydrochloride) had a melting point of 246 °C.

The compound `O=C(Oc1cccc(-c2cccnc2)c1)N1CCN2CCC1CC2` (as salt: hydrochloride) gave a melting point of 210.2 °C.

For the compound `CC(C)(C)c1ccc(OC(=O)N2CCN3CCC2CC3)cc1` (as salt: hydrochloride), the melting point came out at 289.7 °C.

On to `O=C(Oc1ccc(Cl)cc1)N1CCN2CCC1CC2` (as salt: hydrochloride), for which the melting point was 257.5 °C.

The compound `O=C(OCc1ccccc1)N1CCN2CCC1CC2` (as salt: hydrochloride) showed a melting point of 235.6 °C.

Compound `Cc1cccc(OC(=O)N2CCN3CCC2CC3)c1` (as salt: hydrochloride) came in with a melting point of 249.2 °C.

`CCOC(=O)N1CCN2CCC1CC2` (as salt: hydrochloride) yielded a melting point of 207.7 °C.

In the case of `CC(=O)N1CCN(c2ccc(OC(=O)N3CCN4CCC3CC4)cc2)CC1` (as salt: hydrochloride), the melting point turned out to be 166.6 °C.

Take `O=C(Nc1ccc(Br)cc1)N1CCN2CCC1CC2` (as salt: HCl): the melting point was 228 to 231 °C.

For `O=C(Oc1ccc(C(F)(F)F)cc1)N1CCN2CCC1CC2` (as salt: hydrochloride), the melting point is 260.7 °C.

For `N#Cc1ccc(OC(=O)N2CCN3CCC2CC3)cc1` (as salt: hydrochloride), the melting point turned out to be 289.8 °C.

On to `CSc1ccc(OC(=O)N2CCN3CCC2CC3)cc1` (as salt: hydrochloride), for which the melting point worked out at 235.2 °C.

The compound `COc1ccc(OC(=O)N2CCN3CCC2CC3)cc1` (as salt: hydrochloride) returned a melting point of 269.7 °C.

For `O=C(Oc1ccc(Cc2ccccc2)cc1)N1CCN2CCC1CC2` (as salt: hydrochloride), the melting point came to 221.8 °C.

`O=C(Oc1ccc(F)cc1)N1CCN2CCC1CC2` (as salt: hydrochloride) showed a melting point of 276.8 °C.

As to `COC(=O)N1CCN2CCC1CC2` (as salt: hydrochloride), the melting point is 198.7 °C.

The compound `Cc1cc(OC(=O)N2CCN3CCC2CC3)cc(C)c1Br` (as salt: hydrochloride) gave a melting point of 239.5 °C.

In turn, `O=C(Oc1cccc(Br)c1)N1CCN2CCC1CC2` (as salt: hydrochloride) had a melting point of 224.5 °C.

`CCCCCCCCOC(=O)N1CCN2CCC1CC2` (as salt: hydrochloride): the melting point came out at 217.5 °C.

`COc1cccc(OC(=O)N2CCN3CCC2CC3)c1` (as salt: hydrochloride) showed a melting point of 204.3 °C.

In turn, `O=C(Oc1ccccc1)N1CCN2CCC1CC2` returned a melting point of 254.8 °C.

With `N#Cc1ccc(-c2ccc(OC(=O)N3CCN4CCC3CC4)cc2)cc1` (as salt: hydrochloride), the melting point was greater than 300 °C.

Compound `CC(C)(C)c1cccc(OC(=O)N2CCN3CCC2CC3)c1` (as salt: hydrochloride) displayed a melting point of 283.4 °C.

Compound `O=C(c1ccccc1)c1cccc(OC(=O)N2CCN3CCC2CC3)c1` (as salt: hydrochloride) gave a melting point of 241.7 °C.

In the case of `O=C(Oc1ccc(OCc2ccccc2)cc1)N1CCN2CCC1CC2` (as salt: hydrochloride), the melting point is 278.5 °C.

With `O=C(Oc1ccc(I)cc1)N1CCN2CCC1CC2` (as salt: hydrochloride), the melting point is 280.2 °C.

For the compound `O=C(Oc1ccccc1-c1nc2ccccc2s1)N1CCN2CCC1CC2` (as salt: hydrochloride), the melting point came out at 247.6 °C.

On to `CC(C)COC(=O)N1CCN2CCC1CC2` (as salt: hydrochloride), for which the melting point stood at 266.5 °C.

`O=C(Oc1cccc(I)c1)N1CCN2CCC1CC2` (as salt: hydrochloride): the melting point worked out at 243.8 °C.

`O=C(Oc1ccccc1Cl)N1CCN2CCC1CC2` (as salt: hydrochloride) registered a melting point of 251.2 °C.

Compound `O=C(Oc1ccc(Br)c(Cl)c1)N1CCN2CCC1CC2` (as salt: hydrochloride) returned a melting point of 234.7 °C.

Consider `O=C(Oc1cccc(Oc2ccccc2)c1)N1CCN2CCC1CC2` (as salt: hydrochloride), for which the melting point amounted to 204.8 °C.

`COC(=O)c1ccc(OC(=O)N2CCN3CCC2CC3)cc1` (as salt: hydrochloride) showed a melting point of 237.4 °C.

In the case of `O=C(Oc1ccccc1C(F)(F)F)N1CCN2CCC1CC2` (as salt: hydrochloride), the melting point was 228.7 °C.

`O=C(Oc1ccc(-n2cncn2)cc1)N1CCN2CCC1CC2` (as salt: hydrochloride): the melting point stood at 253.1 °C.

Consider `O=C(Oc1cccc(C(F)(F)F)c1)N1CCN2CCC1CC2` (as salt: hydrochloride), for which the melting point is 229.3 °C.

The compound `Cc1cc(OC(=O)N2CCN3CCC2CC3)ccc1Br` (as salt: hydrochloride) displayed a melting point of 212.5 °C.

In turn, `O=C(Oc1ccc(C2CCc3ccccc32)cc1)N1CCN2CCC1CC2` (stereo not shown) (as salt: hydrochloride) gave a melting point of 168.7 °C.

The compound `O=C(Oc1ccccc1Cc1ccccc1)N1CCN2CCC1CC2` (as salt: hydrochloride) returned a melting point of 214 °C.

Take `O=C(Oc1cccc([N+](=O)[O-])c1)N1CCN2CCC1CC2` (as salt: hydrochloride): the melting point came out at 205.1 °C.

Compound `O=C(Oc1ccc2cc(Br)ccc2c1)N1CCN2CCC1CC2` registered a melting point of 174.2 °C.

Regarding `O=C(Oc1ccc(Cl)c(Cl)c1)N1CCN2CCC1CC2` (as salt: hydrochloride), the melting point amounted to 260.2 °C.

Compound `O=C(Oc1ccc(-c2ccc(Br)cc2)cc1)N1CCN2CCC1CC2` (as salt: hydrochloride) came in with a melting point greater than 300 °C.

With `S=C(Oc1ccccc1)N1CCN2CCC1CC2` (as salt: hydrochloride), the melting point is 272.2 °C.

`O=C(Oc1ccccc1-c1nc2ccccc2o1)N1CCN2CCC1CC2` (as salt: hydrochloride) yielded a melting point of 259.9 °C.

`O=C(Oc1ccc(-n2ccnc2)cc1)N1CCN2CCC1CC2` (as salt: hydrochloride) gave a melting point greater than 300 °C.

(Values after patent publication US20060014750A1, “Pharmaceutical compositions for the treatment of CNS and other disorders” (Pfizer Inc, priority 2001, published 2006).)
